According to patent US8476029B2, “MCPP immunoassay” (priority 2009, dated 2013):
Converted amounts (≈) assume the structure as drawn. “And” between values parts separate entries of the source, which are not always exact repeats. Equal values may be shown once. Read-outs that look alike come from different tables or passages of the source.

Assays:
[1] = system: Generic antibody (antibody raised from the mCPP-derived immunogen); assay type: binding, sheep; details: for % CR (percentage cross-reactivity): based on Nefazodone (100%); for IC50 (standard concentration which produces 50% B/B0): generic antibody
Method: (§1) The resulting immunogens were administered separately to adult sheep on a monthly basis to provide target-specific polyclonal antisera. IgG was extracted from the antisera via caprylic acid/ammonium sulphate precipitation of immunoglobulin. Microtitre plates (Thermo Scientific, 95029180) were coated with antibody (125 μl) in coating buffer (10 mM Tris pH 8.5) at 37° C. for 2 hours. […] The plates were then washed. […] The plates were then washed and 125 μl of TMB (Randox, 4380-15) was added to each well and left at room temperature for 20 minutes in the dark. The reaction was stopped using 125 μl of 0.2M sulphuric acid. The absorbances were then read at 450 nm with an ELISA microplate reader (BIO-TEK Instruments, EL340) and the means calculated. Antibody specificity and sensitivity were then determined.

[2] = system: Trazodone antibody (antibody raised from the trazodone-derived immunogen); assay type: binding, sheep; details: for % CR (percentage cross-reactivity): based on Trazodone (100%)
Method: as §1

[3] = humans, urine; cited from earlier work

SMILES	% CR (percentage cross-reactivity) [1]	IC50 (standard concentration which produces 50% B/B0) [1]	% B/B0 ([1]; standard conc 0.156 ng/ml)	% B/B0 ([1]; standard conc 0.313 ng/ml)	% B/B0 ([1]; standard conc 0.625 ng/ml)	% B/B0 ([1]; standard conc 1.250 ng/ml)	% B/B0 ([1]; standard conc 2.500 ng/ml)	% B/B0 ([1]; standard conc 5.000 ng/ml)	% B/B0 ([1]; standard conc 10.000 ng/ml)	% CR (percentage cross-reactivity) [2]	% B/B0 ([2]; standard conc 0.156 ng/ml)	% B/B0 ([2]; standard conc 0.313 ng/ml)	% B/B0 ([2]; standard conc 0.625 ng/ml)	% B/B0 ([2]; standard conc 1.250 ng/ml)	% B/B0 ([2]; standard conc 2.500 ng/ml)	% B/B0 ([2]; standard conc 5.000 ng/ml)	% B/B0 ([2]; standard conc 10.000 ng/ml)	A450 (absorbance at 450 nm) ([1]; standard conc 0.156 ng/ml)	A450 (absorbance at 450 nm) ([1]; standard conc 0.313 ng/ml)	A450 (absorbance at 450 nm) ([1]; standard conc 0.625 ng/ml)	other results
CCc1nn(CCCN2CCN(c3cccc(Cl)c3)CC2)c(=O)n1CCOc1ccccc1 [Nefazodone]	100%	3.901 ng/mL (≈ 0.0083 µM)	91%	83%	73%	58%	46%	34%	24%	1.38%	97%	99%	97%	100%	99%	105%	107%	–	–	–	A450 (absorbance at 450 nm) [2]: 1.621 and 1.677 and 1.663 and 1.765 and 1.799 and 1.631 and 1.656; mCPP as share of total metabolites (minor urinary metabolite of nefazodone) [3]: less than 1%
O=c1n(CCCN2CCN(c3cccc(Cl)c3)CC2)nc2ccccn12 [Trazodone, 2-(3-[4-(3-chlorophenyl)piperazin-1-yl]propyl)-[1,2,4]triazolo[4,3-α]pyridin-3(2H)-one]	733%	–	67%	58%	48%	35%	25%	18%	13%	100%	47%	33%	21%	14%	9%	5%	3%	1.456	1.271	1.041	A450 (absorbance at 450 nm) ([1]; standard conc 1.250 ng/ml): 0.763; A450 (absorbance at 450 nm) ([1]; standard conc 2.500 ng/ml): 0.551; A450 (absorbance at 450 nm) ([1]; standard conc 5.000 ng/ml): 0.398; A450 (absorbance at 450 nm) ([1]; standard conc 10.000 ng/ml): 0.287; A450 (absorbance at 450 nm) ([2]; standard conc 0.156 ng/ml): 0.816; A450 (absorbance at 450 nm) ([2]; standard conc 0.313 ng/ml): 0.570; A450 (absorbance at 450 nm) ([2]; standard conc 0.625 ng/ml): 0.375; A450 (absorbance at 450 nm) ([2]; standard conc 1.250 ng/ml): 0.237; A450 (absorbance at 450 nm) ([2]; standard conc 2.500 ng/ml): 0.151; A450 (absorbance at 450 nm) ([2]; standard conc 5.000 ng/ml): 0.093; A450 (absorbance at 450 nm) ([2]; standard conc 10.000 ng/ml): 0.057
Clc1cccc(N2CCNCC2)c1 [mCPP, 1-(3-chlorophenyl)piperazine]	46%	8.476 ng/mL (≈ 0.0431 µM)	85%	79%	72%	65%	55%	48%	42%	0.68%	98%	100%	100%	100%	101%	103%	106%	1.821	1.679	1.534	A450 (absorbance at 450 nm) ([1]; standard conc 1.250 ng/ml): 1.380; A450 (absorbance at 450 nm) ([1]; standard conc 2.500 ng/ml): 1.183; A450 (absorbance at 450 nm) ([1]; standard conc 5.000 ng/ml): 1.027; A450 (absorbance at 450 nm) ([1]; standard conc 10.000 ng/ml): 0.888; A450 (absorbance at 450 nm) ([2]; standard conc 0.156 ng/ml): 1.721; A450 (absorbance at 450 nm) ([2]; standard conc 0.313 ng/ml): 1.755; A450 (absorbance at 450 nm) ([2]; standard conc 0.625 ng/ml): 1.756; A450 (absorbance at 450 nm) ([2]; standard conc 1.250 ng/ml): 1.759; A450 (absorbance at 450 nm) ([2]; standard conc 2.500 ng/ml): 1.782; A450 (absorbance at 450 nm) ([2]; standard conc 5.000 ng/ml): 1.814; A450 (absorbance at 450 nm) ([2]; standard conc 10.000 ng/ml): 1.857
